Tests used:
[1] = target: human Nav1.8 (Homo sapiens (Human), UniProt Q9Y5Y9); assay: E-VIPR optical membrane potential assay with electrical stimulation; assay type: cell-based; conditions: HEK cells expressing human Nav1.8
Source text: E-VIPR Optical Membrane Potential Assay Method with Electrical Stimulation
Sodium channels are voltage-dependent proteins that can be activated by inducing membrane voltage changes by applying electric fields. The electrical stimulation instrument and methods of use are described in Ion Channel Assay Methods PCT/US01/21652, herein incorporated by reference and are referred to as E-VIPR. The instrument comprises a microtiter plate handler, an optical system for exciting the coumarin dye while simultaneously recording the coumarin and oxonol emissions, a waveform generator, a current- or voltage-controlled amplifier, and a device for inserting electrodes in well. Under integrated computer control, this instrument passes user-programmed electrical stimulus protocols to cells within the wells of the microtiter plate.
24 hours before the assay on E-VIPR, HEK cells expressing human Nav1.8 were seeded in 384-well poly-lysine coated plates at 15,000-20,000 cells per well. HEK cells were grown in media (exact composition is specific to each cell type and NaV subtype) supplemented with 10% FBS (Fetal Bovine Serum, qualified; GibcoBRL #16140-071) and 1% Pen-Strep (Penicillin-Streptomycin; GibcoBRL #15140-122). Cells were grown in vented cap flasks, in 90% humidity and 5% CO2.
• 100 mg/mL Pluronic F-127 (Sigma #P2443), in dry DMSO • Compound Plates: 384-well round bottom plate, e.g. Corning 384-well Polypropylene Round Bottom #3656 • Cell Plates: 384-well tissue culture treated plate, e.g. Greiner #781091-1B • 10 mM DiSBAC6(3) (Aurora #00-100-010) in dry DMSO • 10 mM CC2-DMPE (Aurora #00-100-008) in dry DMSO • 200 mM ABSC1 in H20
Bath1 buffer: Glucose 10 mM (1.8 g/L), Magnesium Chloride (Anhydrous), 1 mM (0.095 g/L), Calcium Chloride, 2 mM (0.222 g/L), HEPES 10 mM (2.38 g/L), Potassium Chloride, 4.5 mM (0.335 g/L), Sodium Chloride 160 mM (9.35 g/L).
Hexyl Dye Solution: Bath1 Buffer+0.5% β-cyclodextrin (make this prior to use, Sigma #C4767), 8 μM CC2-DMPE+2.5 μM DiSBAC6(3). To make the solution Added volume of 10% Pluronic F127 stock equal to volumes of CC2-DMPE+DiSBAC6(3). The order of preparation was first mix Pluronic and CC2-DMPE, then added DiSBAC6(3) while vortexing, then added Bath1+β-Cyclodextrin.
1) Pre-spotted compounds (in neat DMSO) into compound plates. Vehicle control (neat DMSO), the positive control (20 mM DMSO stock tetracaine, 125 μM final in assay) and test compounds were added to each well at 160× desired final concentration in neat DMSO. Final compound plate volume was 80 μL (80-fold intermediate dilution from 1 μL DMSO spot; 160-fold final dilution after transfer to cell plate). Final DMSO concentration for all wells in assay was 0.625%.
2) Prepared Hexyl Dye Solution.
3) Prepared cell plates. On the day of the assay, medium was aspirated and cells were washed three times with 100 μL of Bath1 Solution, maintaining 25 μL residual volume in each well.
4) Dispensed 25 μL per well of Hexyl Dye Solution into cell plates. Incubated for 20-35 minutes at room temp or ambient conditions.
5) Dispensed 80 μL per well of Bath1 into compound plates. Acid Yellow-17 (1 mM) was added and Potassium Chloride was altered from 4.5 to 20 mM depending on the NaV subtype and assay sensitivity.
6) Washed cell plates three times with 100 μL per well of Bath1, leaving 25 μL of residual volume. Then transferred 25 uL per well from Compound Plates to Cell Plates. Incubated for 20-35 minutes at room temp/ambient condition.
7) Read Plate on E-VIPR. Used the current-controlled amplifier to deliver stimulation wave pulses for 10 seconds and a scan rate of 200 Hz. A pre-stimulus recording was performed for 0.5 seconds to obtain the un-stimulated intensities baseline. The stimulatory waveform was followed by 0.5 seconds of post-stimulation recording to examine the relaxation to the resting state.
Data was analyzed and reported as normalized ratios of emission intensities measured in the 460 nm and 580 nm channels. […]

[2] = Human liver microsome assay; assay type: in vitro ADME; conditions: 1 uM substrate, 0.5 mg/mL liver microsome, 2 mM NADPH, 37° C., referenced against time zero control
Protocol: Human Liver Microsome Assay Protocol
Liver microsomal stability data were generated as follows. Substrates were incubated at 37° C. and shaken for 30 minutes in a phosphate buffered solution with human liver microsomes and the cofactor NADPH. A time zero control was similarly prepared, however with NADPH excluded. The final incubation concentrations were 1 uM substrate (0.2% DMSO), 0.5 mg/mL liver microsome, 2 mM NADPH, and 0.1 M phosphate. Reactions were quenched and proteins precipitated with the addition of 2 volume equivalents of ice cold acetonitrile containing an internal standard. Following a centrifugation step, aliquots from the quenched incubations were further diluted with 4 volume equivalents of a 50% aqueous methanol solution and then subjected to LC/MS/MS analysis for quantitation of parent substrate. Microsome stability values were calculated as the percent of substrate remaining after 30 minutes referenced against the time zero control.

human Nav1.8, sequence (Q9Y5Y9 whole entry): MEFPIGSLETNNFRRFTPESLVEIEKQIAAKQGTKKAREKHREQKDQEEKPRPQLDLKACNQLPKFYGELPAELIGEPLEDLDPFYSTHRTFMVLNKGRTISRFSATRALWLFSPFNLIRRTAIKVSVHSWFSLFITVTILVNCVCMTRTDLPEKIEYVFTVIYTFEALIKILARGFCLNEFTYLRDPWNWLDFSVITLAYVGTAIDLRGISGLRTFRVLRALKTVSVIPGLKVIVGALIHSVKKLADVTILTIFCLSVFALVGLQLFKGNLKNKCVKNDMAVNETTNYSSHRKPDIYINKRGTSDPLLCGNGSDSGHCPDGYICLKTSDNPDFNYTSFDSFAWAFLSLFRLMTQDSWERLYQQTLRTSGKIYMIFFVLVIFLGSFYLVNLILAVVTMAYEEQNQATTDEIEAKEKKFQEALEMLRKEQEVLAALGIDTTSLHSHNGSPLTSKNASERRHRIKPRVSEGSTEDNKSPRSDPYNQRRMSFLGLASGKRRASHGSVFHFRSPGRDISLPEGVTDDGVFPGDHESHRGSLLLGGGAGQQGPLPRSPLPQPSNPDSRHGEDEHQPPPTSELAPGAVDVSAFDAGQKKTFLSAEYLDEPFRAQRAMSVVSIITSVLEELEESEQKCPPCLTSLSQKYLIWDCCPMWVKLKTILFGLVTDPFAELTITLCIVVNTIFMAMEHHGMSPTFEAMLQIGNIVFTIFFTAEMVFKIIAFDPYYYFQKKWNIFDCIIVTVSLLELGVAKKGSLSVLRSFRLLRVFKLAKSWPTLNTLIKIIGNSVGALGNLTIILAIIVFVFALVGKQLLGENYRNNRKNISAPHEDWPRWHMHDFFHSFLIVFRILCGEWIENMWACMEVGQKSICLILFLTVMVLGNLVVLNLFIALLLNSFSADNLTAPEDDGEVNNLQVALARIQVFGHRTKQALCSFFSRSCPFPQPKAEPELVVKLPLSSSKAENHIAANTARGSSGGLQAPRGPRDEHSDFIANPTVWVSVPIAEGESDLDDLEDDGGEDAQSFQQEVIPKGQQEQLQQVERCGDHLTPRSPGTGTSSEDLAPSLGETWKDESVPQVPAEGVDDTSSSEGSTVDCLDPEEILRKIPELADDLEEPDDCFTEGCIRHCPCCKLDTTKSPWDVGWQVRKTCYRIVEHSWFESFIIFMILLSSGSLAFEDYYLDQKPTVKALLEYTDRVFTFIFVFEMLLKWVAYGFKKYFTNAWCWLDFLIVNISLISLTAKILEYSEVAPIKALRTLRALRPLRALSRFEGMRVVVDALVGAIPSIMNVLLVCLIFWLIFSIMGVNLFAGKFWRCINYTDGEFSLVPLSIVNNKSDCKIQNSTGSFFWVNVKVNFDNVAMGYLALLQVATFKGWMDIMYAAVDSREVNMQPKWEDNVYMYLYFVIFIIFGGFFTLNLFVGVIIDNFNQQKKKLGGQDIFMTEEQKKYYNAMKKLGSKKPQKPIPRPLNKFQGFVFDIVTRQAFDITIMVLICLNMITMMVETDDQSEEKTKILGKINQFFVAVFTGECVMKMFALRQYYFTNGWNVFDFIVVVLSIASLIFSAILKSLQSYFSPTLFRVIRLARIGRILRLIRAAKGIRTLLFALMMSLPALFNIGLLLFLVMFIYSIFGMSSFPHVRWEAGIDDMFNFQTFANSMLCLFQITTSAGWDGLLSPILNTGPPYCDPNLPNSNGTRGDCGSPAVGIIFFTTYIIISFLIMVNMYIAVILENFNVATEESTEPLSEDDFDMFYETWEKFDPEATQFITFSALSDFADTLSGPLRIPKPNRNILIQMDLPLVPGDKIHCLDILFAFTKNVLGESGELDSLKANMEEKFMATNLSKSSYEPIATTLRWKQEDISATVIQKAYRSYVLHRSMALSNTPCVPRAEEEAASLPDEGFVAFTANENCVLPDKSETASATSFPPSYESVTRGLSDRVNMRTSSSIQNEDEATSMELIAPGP

Structure (SMILES)	IC50 [1] [nM]	HLM: percent unchanged after 30 min [2] [%]
CCOc1ccc(Oc2cc(C(F)(F)F)ccc2C(=O)Nc2cccc(S(N)(=O)=O)c2)cc1 [Compound 45, 2-(4-ethoxyphenoxy)-N-(3-sulfamoylphenyl)-4-(trifluoromethyl)benzamide]	21	72
CCCOc1ccccc1Oc1cc(C(F)(F)F)ccc1C(=O)Nc1cccc(S(N)(=O)=O)c1 [Compound 46, 2-(2-propoxyphenoxy)-N-(3-sulfamoylphenyl)-4-(trifluoromethyl)benzamide]	14	67
Cc1ccccc1Oc1cc(C(F)(F)F)ccc1C(=O)Nc1cccc(S(N)(=O)=O)c1 [Compound 47, N-(3-sulfamoylphenyl)-2-(o-tolyloxy)-4-(trifluoromethyl)benzamide]	14	100
COc1ccc(Oc2cc(C(F)(F)F)ccc2C(=O)Nc2cccc(S(N)(=O)=O)c2)c(Cl)c1 [Compound 48, 2-(2-chloro-4-methoxyphenoxy)-N-(3-sulfamoylphenyl)-4-(trifluoromethyl)benzamide]	10	68
COc1ccc(Oc2cc(C(F)(F)F)ccc2C(=O)Nc2cccc(S(N)(=O)=O)c2)c(C)c1 [Compound 49, 2-(4-methoxy-2-methylphenoxy)-N-(3-sulfamoylphenyl)-4-(trifluoromethyl)benzamide]	12	57
COc1ccc(Oc2cc(C(F)(F)F)ccc2C(=O)Nc2cccc(S(N)(=O)=O)c2)c(OC)c1 [Compound 50, 2-(2,4-dimethoxyphenoxy)-N-(3-sulfamoylphenyl)-4-(trifluoromethyl)benzamide]	8	72
NS(=O)(=O)c1cccc(NC(=O)c2ccc(C(F)(F)F)cc2Oc2ccc(OC(F)(F)F)cc2)c1 [Compound 51, N-(3-sulfamoylphenyl)-2-(4-(trifluoromethoxy)phenoxy)-4-(trifluoromethyl)benzamide]	14	89
COc1c(F)cccc1Oc1cc(C(F)(F)F)ccc1C(=O)Nc1cccc(S(N)(=O)=O)c1 [Compound 52, 2-(3-fluoro-2-methoxyphenoxy)-N-(3-sulfamoylphenyl)-4-(trifluoromethyl)benzamide]	11	81
CC(C)Oc1ccc(Oc2cc(C(F)(F)F)ccc2C(=O)Nc2cccc(S(N)(=O)=O)c2)cc1 [Compound 53, 2-(4-isopropoxyphenoxy)-N-(3-sulfamoylphenyl)-4-(trifluoromethyl)benzamide]	26	71
COc1cc(F)ccc1Oc1cc(OC(F)(F)F)ccc1C(=O)Nc1cccc(S(N)(=O)=O)c1 [Compound 54, 2-(4-fluoro-2-methoxyphenoxy)-N-(3-sulfamoylphenyl)-4-(trifluoromethoxy)benzamide]	5	96
NS(=O)(=O)c1cccc(NC(=O)c2ccc(OC(F)(F)F)cc2Oc2ccc(F)cc2)c1 [Compound 55, 2-(4-fluorophenoxy)-N-(3-sulfamoylphenyl)-4-(trifluoromethoxy)benzamide]	9	95
NS(=O)(=O)c1cccc(NC(=O)c2ccc(OC(F)(F)F)cc2Oc2ccc(F)cc2Cl)c1 [Compound 56, 2-(2-chloro-4-fluorophenoxy)-N-(3-sulfamoylphenyl)-4-(trifluoromethoxy)benzamide]	4	102
COc1ccccc1Oc1cccc(C(F)(F)F)c1C(=O)Nc1cccc(S(N)(=O)=O)c1 [Compound 57, 2-(2-methoxyphenoxy)-N-(3-sulfamoylphenyl)-6-(trifluoromethyl)benzamide]	27	78
Cc1cc(Cl)ccc1Oc1cccc(C(F)(F)F)c1C(=O)Nc1cccc(S(N)(=O)=O)c1 [Compound 58, 2-(4-chloro-2-methylphenoxy)-N-(3-sulfamoylphenyl)-6-(trifluoromethyl)benzamide]	6	107
Cc1c(F)cccc1Oc1cccc(C(F)(F)F)c1C(=O)Nc1cccc(S(N)(=O)=O)c1 [Compound 59, 2-(3-fluoro-2-methylphenoxy)-N-(3-sulfamoylphenyl)-6-(trifluoromethyl)benzamide]	14	66
NS(=O)(=O)c1cccc(NC(=O)c2c(Oc3ccc(OC(F)(F)F)cc3)cccc2C(F)(F)F)c1 [Compound 60, N-(3-sulfamoylphenyl)-2-(4-(trifluoromethoxy)phenoxy)-6-(trifluoromethyl)benzamide]	9	92
COc1ccc(Oc2cccc(C(F)(F)F)c2C(=O)Nc2cccc(S(N)(=O)=O)c2)cc1F [Compound 61, 2-(3-fluoro-4-methoxyphenoxy)-N-(3-sulfamoylphenyl)-6-(trifluoromethyl)benzamide]	28	68
COc1ccc(Oc2cc(OC(F)(F)F)ccc2C(=O)Nc2cccc(S(N)(=O)=O)c2)c(Cl)c1 [Compound 62, 2-(2-chloro-4-methoxyphenoxy)-N-(3-sulfamoylphenyl)-4-(trifluoromethoxy)benzamide]	16	81
NS(=O)(=O)c1cccc(NC(=O)c2ccc(OC(F)(F)F)cc2Oc2ccccc2Cl)c1 [Compound 63, 2-(2-chlorophenoxy)-N-(3-sulfamoylphenyl)-4-(trifluoromethoxy)benzamide]	27	92
NS(=O)(=O)c1cccc(NC(=O)c2ccc(OC(F)(F)F)cc2Oc2ccccc2OC(F)F)c1 [Compound 64, 2-(2-(difluoromethoxy)phenoxy)-N-(3-sulfamoylphenyl)-4-(trifluoromethoxy)benzamide]	22	96
COc1cc(Cl)ccc1Oc1cc(OC(F)(F)F)ccc1C(=O)Nc1cccc(S(N)(=O)=O)c1 [Compound 65, 2-(4-chloro-2-methoxyphenoxy)-N-(3-sulfamoylphenyl)-4-(trifluoromethoxy)benzamide]	22	101
COc1c(Cl)cccc1Oc1cc(OC(F)(F)F)ccc1C(=O)Nc1cccc(S(N)(=O)=O)c1 [Compound 66, 2-(3-chloro-2-methoxyphenoxy)-N-(3-sulfamoylphenyl)-4-(trifluoromethoxy)benzamide]	7	89
COc1ccc(Oc2cc(C(F)(F)F)ccc2C(=O)Nc2cccc(S(N)(=O)=O)c2)cc1Cl [Compound 67, 2-(3-chloro-4-methoxyphenoxy)-N-(3-sulfamoylphenyl)-4-(trifluoromethyl)benzamide]	26	91

Source: US11203571B2, “Sulfonamides as modulators of sodium channels” (VERTEX PHARMACEUTICALS INCORPORATED, priority 2013, dated 2021)
